Like-named read-outs stand apart in the source and are kept apart here.
Assays:
[1] = target: EGFR (EGFR type 1 kinase, Upstate) (Homo sapiens, UniProt P00533); test: Inhibition of EGFR enzyme (fluorescence polarization kinase assay); settings: read-out: IC50 (nM) EGFR; EGFR type 1 kinase, ATP 50 μM
Method: 10 μl of an EGFR (EGFR type 1 kinase, Upstate, 10 ng/μl) was added to each well of a 96-well plate. […] The calculation and analysis of IC50 were carried out by using Microsoft Excel.

EGFR = target: T1, EGFR (Homo sapiens, UniProt P00533); test: Prolongation study in A431 cells (EGFR phosphorylation inhibition); assay type: cell-based; settings: A-431, 1 μM for 4 hrs, then washed, EGF 100 ng/ml
T1 construct: A skin cancer cell line, A431 (ATCC: CRL-1555), was used; endogenous in cells; host or cells: A431 (ATCC: CRL-1555)
T1 sequence (P00533 25-1210): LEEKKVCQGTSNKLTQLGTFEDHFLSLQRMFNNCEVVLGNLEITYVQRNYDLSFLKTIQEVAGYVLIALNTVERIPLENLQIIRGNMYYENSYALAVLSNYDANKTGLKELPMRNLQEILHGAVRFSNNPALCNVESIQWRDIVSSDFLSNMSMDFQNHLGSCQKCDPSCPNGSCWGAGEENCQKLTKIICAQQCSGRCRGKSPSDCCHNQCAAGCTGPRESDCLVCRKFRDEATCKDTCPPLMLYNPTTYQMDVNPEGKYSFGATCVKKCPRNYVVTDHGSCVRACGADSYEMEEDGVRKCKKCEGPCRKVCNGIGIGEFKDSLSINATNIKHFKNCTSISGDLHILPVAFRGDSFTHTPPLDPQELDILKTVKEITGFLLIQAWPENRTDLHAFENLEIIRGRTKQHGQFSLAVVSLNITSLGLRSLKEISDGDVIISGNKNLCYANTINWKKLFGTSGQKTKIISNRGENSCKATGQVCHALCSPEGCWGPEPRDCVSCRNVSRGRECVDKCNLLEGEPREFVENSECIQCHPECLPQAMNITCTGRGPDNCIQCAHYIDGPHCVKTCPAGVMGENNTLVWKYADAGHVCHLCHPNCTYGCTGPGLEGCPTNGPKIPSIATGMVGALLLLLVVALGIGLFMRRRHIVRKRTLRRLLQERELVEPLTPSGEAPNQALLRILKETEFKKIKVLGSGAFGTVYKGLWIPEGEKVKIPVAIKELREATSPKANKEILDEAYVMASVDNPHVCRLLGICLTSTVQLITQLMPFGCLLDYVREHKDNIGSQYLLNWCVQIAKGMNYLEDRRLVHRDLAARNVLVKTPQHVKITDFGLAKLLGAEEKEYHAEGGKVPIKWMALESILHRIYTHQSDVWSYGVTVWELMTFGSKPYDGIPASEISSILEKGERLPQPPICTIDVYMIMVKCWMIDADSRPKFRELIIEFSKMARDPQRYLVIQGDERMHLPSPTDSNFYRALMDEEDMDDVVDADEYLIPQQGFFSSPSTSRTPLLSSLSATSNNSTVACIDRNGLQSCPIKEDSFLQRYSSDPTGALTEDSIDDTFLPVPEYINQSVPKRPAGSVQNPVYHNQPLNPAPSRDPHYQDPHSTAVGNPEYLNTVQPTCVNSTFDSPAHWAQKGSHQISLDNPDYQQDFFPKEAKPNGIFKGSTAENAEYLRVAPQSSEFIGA
Method: A skin cancer cell line, A431 (ATCC: CRL-1555), was used to test the degrees of the inventive compounds in inhibiting EGFR's phosphorylation and the prolongation of ability to inhibit it thereof.
The cell line was incubated in a culture flask at 37° C. under 95% air and 5% CO2 using a culture medium containing DMEM, 10% FBS and 1% PS. When more than 90% of the total volume of the culture flask became filled with cells, the cultured cell solution was subject to secondary incubation and was poured to each well of a 6-well plate to the extent of 500,000 cells/well. After 24 hrs, the cells were separated from the solution, washed with PBS, and incubated in a culture medium containing DMEM, 0.1% FBS and 1% PS for 16 hrs. The compounds obtained in Examples 1, 17, 19 and 36, and Tarceva as EGFR phosphorylation inhibitors were each added to the cell-containing well to a concentration of 1 μM. After 4 hrs, the cells were separated from the solution, washed 4 times with PBS after every 0, 2, 4 and 8 hrs, and incubated in a culture medium containing DMEM, 0.1% FBS and 1% PS. […] Just before the completion of the reaction, the cultured cell solution was treated with a 100 ng/ml concentration of EGF (Sigma, Cat No. E9644) for 5 mins to induce the activation of EGFR. After the completion of the reaction, the well plate holding the cultured cells was stored at −70° C. In control groups, the replacement of the medium was performed instead of the addition of the EGFR phosphorylation inhibitor, wherein the induction of EGFR activation using EGF was made only in a positive control group and not made in a negative control group.
For Western blot and enzyme immune measuring (ELISA) methods, the well plate stored at −70° C. was allowed to melt to room temperature, and then protein was extracted from the cells in the well plate using a protein extract buffer. The extraction of the protein was performed as follows: 250 μl of the protein extract buffer (Phosphosafe extraction reagent, Calbiochem, Cat No. 71296-3) comprising protease inhibitor cocktail was added to each cell-containing well, which was stirred at room temperature for 5 mins. The cells were collected using a cell scraper and put in an 1.5 ml tube, which was centrifuged at a speed of 16,000×g for 5 mins. The upper layer thus obtained was separated, of which the protein content was determined by a protein assay kit (Bio-rad, Cat No. 500-0116). The protein extracted was diluted with PBS to a concentration of 0.8 mg/ml.
A human EGFR (py1173) immunoassay kit (Biosource, Cat No. KHR9071) was used in the enzyme immune measuring method. 100 μl of the sample which was diluted by 4 folds with a standard dilution buffer in a kit was added to a strip well, which was incubated at a 4° C. refrigerator overnight. The cultured cells was separated therefrom and washed 4 times with 200 μl of a washing buffer. 100 μl of the resulting primary antibody (anti-human EGFR [pY1173]) was put to each strip well, incubated at 37° C. for 1 hr, and washed 4 times with 200 μl of a washing buffer. The resulting secondary antibody (anti-rabbit IgG-HRP) was diluted by 100 folds with an HRP dilution buffer in a kit. 100 μl of the dilute was put to each strip well, incubated at 37° C. for 30 mins, and washed 4 times with 200 μl of the washing buffer. 100 μl of an HRP substrate in a kit was put to each strip well and incubated in a darkroom for 10 to 30 mins. 100 μl of a reaction stop solution was added thereto to terminate the reaction, and then, the absorbance at 450 nm was observed.
Electrophoresis and Western blot methods were conducted based on the conventional methods in the following: An LDS buffer was added to each sample, which was allowed to boil at 70° C. for 10 mins. 10 μl of the resulting solution was loaded to a 12-well gel (Nupage 4˜12% Bis-tris gel, Invitrogen), followed by 120 volt-electrophoresis in a buffer (MOPS electrophoresis buffer, Invitrogen, Cat No. NP0006-1) for 2 hrs. […]

[2] = test system: SW-620 colon/rectal cancer cell line; test: Cancer cell growth inhibition, SW-620 (SRB); settings: Homo sapiens, SW-620, 72 h, read-out: IC50 (nM) SW-620
EGFR T790M kinase = EGFR T790M kinase (Homo sapiens, UniProt P00533, T790M); test: Inhibition of EGFR mutant enzyme (T790M)
Chain of EGFR T790M kinase (P00533 25-1210 T790M): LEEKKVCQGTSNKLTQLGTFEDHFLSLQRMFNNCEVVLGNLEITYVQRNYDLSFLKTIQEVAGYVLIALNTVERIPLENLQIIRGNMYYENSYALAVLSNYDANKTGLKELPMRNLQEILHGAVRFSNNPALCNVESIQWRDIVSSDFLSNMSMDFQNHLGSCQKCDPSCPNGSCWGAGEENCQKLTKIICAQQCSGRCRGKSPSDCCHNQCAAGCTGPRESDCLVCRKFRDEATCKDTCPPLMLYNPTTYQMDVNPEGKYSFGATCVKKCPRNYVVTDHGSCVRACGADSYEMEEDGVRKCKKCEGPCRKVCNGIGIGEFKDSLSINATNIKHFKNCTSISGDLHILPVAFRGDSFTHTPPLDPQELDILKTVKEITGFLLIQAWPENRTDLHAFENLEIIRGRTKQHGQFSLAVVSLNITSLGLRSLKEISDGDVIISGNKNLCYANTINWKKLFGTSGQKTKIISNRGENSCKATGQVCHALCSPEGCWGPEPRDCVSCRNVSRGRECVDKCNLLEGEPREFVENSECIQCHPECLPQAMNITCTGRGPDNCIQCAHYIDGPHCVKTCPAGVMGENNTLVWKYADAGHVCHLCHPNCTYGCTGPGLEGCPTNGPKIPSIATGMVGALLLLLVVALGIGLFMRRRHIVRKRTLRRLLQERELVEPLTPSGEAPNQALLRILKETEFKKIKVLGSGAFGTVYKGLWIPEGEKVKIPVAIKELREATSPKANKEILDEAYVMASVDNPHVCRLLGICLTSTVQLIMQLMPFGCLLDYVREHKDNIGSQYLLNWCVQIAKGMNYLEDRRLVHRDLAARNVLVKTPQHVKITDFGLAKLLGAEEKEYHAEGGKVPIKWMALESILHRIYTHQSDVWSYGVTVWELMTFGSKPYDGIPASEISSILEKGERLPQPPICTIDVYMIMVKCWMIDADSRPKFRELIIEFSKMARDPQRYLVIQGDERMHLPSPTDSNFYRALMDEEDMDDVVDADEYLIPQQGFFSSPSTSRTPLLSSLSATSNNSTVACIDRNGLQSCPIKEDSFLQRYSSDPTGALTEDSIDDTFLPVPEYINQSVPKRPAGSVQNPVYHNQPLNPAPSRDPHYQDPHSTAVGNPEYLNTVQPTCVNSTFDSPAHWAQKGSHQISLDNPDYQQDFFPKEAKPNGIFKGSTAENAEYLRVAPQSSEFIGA

[3] = test system: A431 skin cancer cell line; test: Cancer cell growth inhibition, A431 (SRB); settings: Homo sapiens, A-431, 72 h, read-out: ID50 (nM) A431
[4] = test system: H1975 lung cancer cell line; test: Cancer cell growth inhibition, H1975 (celltiter); settings: Homo sapiens, NCI-H1975, 48 h, read-out: IC50 (nM) H1975
Method: The medium was removed from each well of the 96-well plate.
In case of H1975, the cells were diluted with a culture medium to a concentration of 50,000 cells/ml. 100 μl of the diluted cell solution was added to each well of a 96-well plate, and, after 1 day, was washed with a mixture of RPMI, 0.1% FBS and 1% penicillin-streptomycin (PS), followed by replacement of the medium. The plate was allowed to be kept overnight and be treated to various concentrations under the same medium condition for 48 hrs. Similarly to an MTT assay, 15 μl of a celltiter one shot solution (Promega) was added to each well, which was incubated for 2 to 3 hrs, and, then, the absorbance at 490 nm was determined.

[5] = test system: SK-Br3 breast cancer cell line; test: Cancer cell growth inhibition, SK-Br3 (SRB); settings: Homo sapiens, SK-BR-3, 72 h, read-out: ID50 (nM) SK-Br3
[6] = 0 hr after washing, read-out: EGFR phosphorylation inhibition in A431 cell line (%) 0 hr Avg.
[7] = 8 hrs after washing, read-out: EGFR phosphorylation inhibition in A431 cell line (%) 8 hrs Avg.
[8] = 24 hrs after washing, read-out: EGFR phosphorylation inhibition in A431 cell line (%) 24 hrs Avg.
[9] = 48 hrs after washing, read-out: EGFR phosphorylation inhibition in A431 cell line (%) 48 hrs Avg.
[10] = 72 hrs after washing, read-out: EGFR phosphorylation inhibition in A431 cell line (%) 72 hrs Avg.
[11] = read-out: IC50 (nM) T790M, EGFR T790M kinase

Chain of EGFR (EGFR type 1 kinase, Upstate) (P00533 25-1210): as the sequence (P00533 25-1210) above

SMILES: C=CC(=O)N1CC(Oc2cc3c(Nc4ccc(F)c(Cl)c4F)ncnc3cc2OC)C1 [Example 17, 1-(3-(4-(3-chloro-2,4-difluorophenylamino)-7-methoxyquinazolin-6-yloxy)azetidin-1-yl)pro-2-pen-1-one]
- IC50 [1]: 0.7 nM
- inhibition at 1 µM (EGFR; [6]): 87%
- inhibition at 1 µM (EGFR; [7]): 88%
- inhibition at 1 µM (EGFR; [8]): 62%
- inhibition at 1 µM (EGFR; [9]): 31%
- inhibition at 1 µM (EGFR; [10]): 0%
- IC50 [2]: > 5000 nM
- IC50 (EGFR T790M kinase; [11]): 0.8 nM
- IC50 [3]: 0.3 nM
- IC50 [4]: 1.5 nM
- IC50 [5]: 0.3 nM

SMILES: C=CC(=O)N1CC[C@H](Oc2cc3c(Nc4ccc(Br)c(Cl)c4F)ncnc3cc2OC)C1 [Example 7, 1-((3S)-3-(4-(4-bromo-3-chloro-2-fluorophenylamino)-7-methoxyquinazolin-6-yloxy)pyrrolidin-1-yl)pro-2-pen-1-one]
- IC50 [1]: 10 nM
- IC50 [2]: > 5000 nM
- IC50 (EGFR T790M kinase; [11]): 8 nM
- IC50 [3]: 5 nM
- IC50 [4]: 55 nM
- IC50 [5]: 8 nM

SMILES: C=CC(=O)N1CC[C@@H](Oc2cc3c(Nc4ccc(F)c(Cl)c4F)ncnc3cc2OC)C[C@@H]1C(N)=O [Example 135, (2R,4R)-1-acryloyl-4-(4-(3-chloro-2,4-difluorophenylamino)-7-methoxyquinazolin-6-yloxy)piperidin-2-carboxamide]
- IC50 [1]: 4.1 nM
- IC50 [2]: > 5000 nM
- IC50 (EGFR T790M kinase; [11]): 0.7 nM
- IC50 [3]: 0.8 nM
- IC50 [4]: 5.2 nM
- IC50 [5]: 0.2 nM

SMILES: C=CC(=O)N1CC[C@H](Oc2cc3c(Nc4ccc(F)c(Cl)c4F)ncnc3cc2OC)C[C@H]1C(N)=O [Example 120, (2S,4S)-1-acryloyl-4-(4-(3-chloro-2,4-difluorophenylamino)-7-methoxyquinazolin-6-yloxy)piperidin-2-carboxamide]
- IC50 [1]: 1.4 nM
- IC50 [2]: > 5000 nM
- IC50 (EGFR T790M kinase; [11]): 0.7 nM
- IC50 [3]: 3 nM
- IC50 [4]: 5.2 nM
- IC50 [5]: 1.3 nM

SMILES: C=CC(=O)N1CCC(Oc2cc3c(Nc4ccc(F)c(Cl)c4F)ncnc3cc2OCCOC)CC1 [Example 117, 1-(4-(4-(3-Chloro-2,4-difluorophenylamino)-7-(2-methoxyethoxy)quinazolin-6-yloxy)piperidin-1-yl)prop-2-en-1-one]
- IC50 [1]: 0.7 nM
- IC50 [2]: > 5000 nM
- IC50 (EGFR T790M kinase): 3 nM
- IC50 [3]: 4 nM
- IC50 [4]: 47 nM
- IC50 [5]: 1.4 nM

SMILES: C=CC(=O)N1CCC(Oc2cc3c(Nc4ccc(F)c(Cl)c4F)ncnc3cc2OC)CC1 [Example 19, 1-(4-(4-(3-chloro-2,4-difluorophenylamino)-7-methoxyquinazolin-6-yloxy)piperidin-1-yl)pro-2-pen-1-one]
- IC50 [1]: 1.1 nM
- inhibition at 1 µM (EGFR; [6]): 81%
- inhibition at 1 µM (EGFR; [7]): 86%
- inhibition at 1 µM (EGFR; [8]): 80%
- inhibition at 1 µM (EGFR; [9]): 34%
- inhibition at 1 µM (EGFR; [10]): 0%
- IC50 [2]: > 5000 nM
- IC50 (EGFR T790M kinase; [11]): 1.9 nM
- IC50 [3]: 0.3 nM
- IC50 [4]: 1.3 nM
- IC50 [5]: 0.3 nM

SMILES: C=CC(=O)N1CC(Oc2cc3c(Nc4cccc(Cl)c4F)ncnc3cc2OC)C1 [Example 23, 1-(3-(4-(3-chloro-2-fluorophenylamino)-7-methoxyquinazolin-6-yloxy)azetidin-1-yl)pro-2-pen-1-one]
- IC50 [1]: 6 nM
- IC50 [2]: > 5000 nM
- IC50 (EGFR T790M kinase; [11]): 4 nM
- IC50 [3]: 1.6 nM
- IC50 [4]: 9 nM
- IC50 [5]: 0.5 nM
